Assay results from patent US20260028354A1, “TETRAHYDRONAPHTHALENE DERIVATIVES AS ESTROGEN RECEPTOR DEGRADERS” (REGENT OF THE UNIVERSITY OF MICHIGAN, priority 2022, published 2026).

Assay: Western blot analysis for "B" compounds
Format: cell-based
Conditions: read-out: Traditional Western Degradation Potency (DC50)
Description: Western Blot Analysis. Western blot analysis was performed essentially as described previously. The cells treated with indicated compounds were lysed in Radioimmunoprecipitation Assay Protein Lysis and Extraction Buffer (25 mmol/I. Tris.HCl, pH 7.6, 150 mmol/L, NaCl, 1% Nonidet P-40, 1% sodium deoxycholate, and 0.1% sodium dodecyl sulfate) containing proteinase inhibitor cocktail (Roche Diagnostics, Mannheim, Germany). Equal amounts of total protein were electrophoresed through 10% SDS-polyacrylamide gels after determination of protein concentration by BCA assay (Fisher Scientific, Pittsburgh, PA), The separated protein bands were transferred onto PVDF membranes (GE Healthcare Life Sciences, Marlborough, MA) and blotted against different antibodies, as indicated. The blots were scanned, and the band intensities were quantified using GelQuant.NET software provided by biochemlabsolutions.com. The relative mean intensity of target proteins was expressed after normalization to the intensity of glyceraldehyde-3-phosphate dehydrogenase bands.

`O=C1CCC(N2C(=O)c3cc4c(cc3C2=O)CN(CC(=O)N2CCC3(CC2)CCN(c2ccc([C@H]5c6ccc(O)cc6CC[C@H]5c5ccccc5)cn2)CC3)C4)C(=O)N1` (mixture of isomers) [Compound B81, 2-(2,6-dioxopiperidin-3-yl)-6-(2-(9-(5-((1R,2R)-6-hydroxy-2-phenyl-1,2,3,4-tetrahydronaphthalen-1-yl)pyridin-2-yl)-3,9-diazaspiro[5.5]undecan-3-yl)-2-oxoethyl)-6,7-dihydropyrrolo[3,4-f]isoindole-1,3(2H,5H)-dione] showed a DC50 greater than 0.1 µM.

In the case of `O=C1CCC(N2C(=O)c3cc4c(cc3C2=O)CN([C@H]2CC[C@H](NC3CN(c5ccc([C@@H]6c7ccc(O)cc7CC[C@@H]6c6ccccc6)cc5)C3)CC2)C4)C(=O)N1` (stereo partly drawn) [Compound B103, 2-(2,6-dioxopiperidin-3-yl)-6-((1R,4r)-4-((1-(4-((1R,2S)-6-hydroxy-2-phenyl-1,2,3,4-tctrahydronaphthalen-1-yl)phenyl)azetidin-3-yl)amino)cyclohexyl)-6,7-dihydropyrrolo[3,4-f]isoindole-1,3(2H,5H)-dione], the DC50 is reported as greater than 0.1 µM.

For `O=C1CCC(N2C(=O)c3cc4c(cc3C2=O)CN(C(=O)CN2CCC3(CCN(c5ccc([C@@H]6c7ccc(O)cc7CC[C@@H]6c6ccccc6)cc5)CC3)C2)C4)C(=O)N1` (mixture of isomers) [Compound B21, 2-(2,6-dioxopiperidin-3-yl)-6-(2-(8-(4-((1R,2S)-6-hydroxy-2-phenyl-1,2,3,4-tetrahydronaphthalen-1-yl)phenyl)-2,8-diazaspiro[4.5]decan-2-yl)acetyl)-6,7-dihydropyrrolo[3,4-f]isoindole-1,3(2H,5H)-dione], the DC50 was greater than 0.1 µM.

`O=C1CCC(N2C(=O)c3cc4c(cc3C2=O)CN(CC2(F)CN(CC3CCN(c5ccc([C@@H]6c7ccc(O)cc7CC[C@@H]6c6ccccc6)cc5)CC3)C2)C4)C(=O)N1` (stereo partly drawn) [Compound B271, 2-(2,6-dioxopiperidin-3-yl)-6-((3-fluoro-1-((1-(4-((1R,2S)-6-hydroxy-2-phenyl-1,2,3,4-tetrahydronaphthalen-1-yl)phenyl)piperidin-4-yl)methyl)azetidin-3-yl)methyl)-6,7-dihydropyrrolo[3,4-f]isoindole-1,3(2H,5H)-dione] gave a DC50 greater than 0.1 µM.

`O=C1CCC(N2C(=O)c3cc4c(cc3C2=O)CN(CC(=O)N2CCC3(CC2)CCN(C(=O)c2ccc([C@@H]5c6ccc(O)cc6CC[C@@H]5c5ccccc5)cc2)CC3)C4)C(=O)N1` (stereo partly drawn) [Compound B290, 2-(2,6-dioxopiperidin-3-yl)-6-(2-(9-(4-((1R,2S)-6-hydroxy-2-phenyl-1,2,3,4-tetrahydronaphthalen-1-yl)benzoyl)-3,9-diazaspiro[5.5]undecan-3-yl)-2-oxoethyl)-6,7-dihydropyrrolo[3,4-f]isoindole-1,3(2H,5H)-dione] gave a DC50 greater than 0.1 µM.

Molecule `O=C1CCC(N2C(=O)c3cc4c(cc3C2=O)CN(CC(=O)NC2CCN(c3ccc([C@@H]5c6ccc(O)cc6CC[C@@H]5c5ccccc5)cc3)CC2)C4)C(=O)N1` (stereo partly drawn) [Compound B93, 2-(6-(2,6-dioxopiperidin-3-yl)-5,7-dioxo-3,5,6,7-tetrahydropyrrolo[3,4-f]isoindol-2(1H)-yl)-N-(1-(4-((1R,2S)-6-hydroxy-2-phenyl-1,2,3,4-tetrahydronaphthalen-1-yl)phenyl)piperidin-4-yl)acetamide] has a DC50 greater than 0.1 µM.

In the case of `O=C1CCC(N2C(=O)c3cc4c(cc3C2=O)CN(CC(=O)N2CCC3(CC2)CCN(c2ccc([C@@H]5c6ccc(O)cc6CC[C@@H]5c5ccccc5)cc2)C3)C4)C(=O)N1` (mixture of isomers) [Compound B20, 2-(2,6-dioxopiperidin-3-yl)-6-(2-(2-(4-((1R,2S)-6-hydroxy-2-phenyl-1,2,3,4-tetrahydronaphthalen-1-yl)phenyl)-2,8-diazaspiro[4.5]decan-8-yl)-2-oxoethyl)-6,7-dihydropyrrolo[3,4-f]isoindole-1,3(2H,5H)-dione], the DC50 is reported as 0.01 to 0.1 µM.

For `O=C1CCC(N2Cc3cc4c(cc3C2=O)CN(CC2CN(CC3CCN(c5ccc([C@@H]6c7ccc(O)cc7CC[C@@H]6c6ccccc6)cc5)CC3)C2)C4=O)C(=O)N1` (stereo partly drawn) [Compound B301, 2-(2,6-dioxopiperidin-3-yl)-6-((1-((1-(4-((1R,2S)-6-hydroxy-2-phenyl-1,2,3,4-tetrahydronaphthalen-1-yl)phenyl)piperidin-4-yl)methyl)azetidin-3-yl)methyl)-2,3,6,7-tetrahydropyrrolo[3,4-f]isoindole-1,5-dione], the DC50 was greater than 0.1 µM.

Molecule `O=C1CCC(N2C(=O)c3cc4c(cc3C2=O)CN(C2CCC(NCC3CN(c5ccc([C@@H]6c7ccc(O)cc7CC[C@@H]6c6ccccc6)cc5)C3)CC2)C4)C(=O)N1` (stereo partly drawn) [Compound B101, 2-(2,6-dioxopiperidin-3-yl)-6-(4-(((1-(4-((1R,2S)-6-hydroxy-2-phenyl-1,2,3,4-tetrahydronaphthalen-1-yl)phenyl)azetidin-3-yl)methyl)amino)cyclohexyl)-6,7-dihydropyrrolo[3,4-f]isoindole-1,3(2H,5H)-dione] has a DC50 greater than 0.1 µM.

Molecule `O=C1CCC(N2C(=O)c3cc4c(cc3C2=O)CN([C@H]2CC[C@@H](C(=O)N3CC(Oc5ccc([C@@H]6c7ccc(O)cc7CC[C@@H]6c6ccccc6)cc5)C3)CC2)C4)C(=O)N1` (stereo partly drawn) [Compound B123, 2-(2,6-dioxopiperidin-3-yl)-6-((1R,4s)-4-(3-(4-((1R,2S)-6-hydroxy-2-phenyl-1,2,3,4-tetrahydronaphthalen-1-yl)phenoxy)azetidine-1-carbonyl)cyclohexyl)-6,7-dihydropyrrolo[3,4-f]isoindole-1,3(2H,5H)-dione] has a DC50 of less than 0.01 µM.

`CC1(C(=O)N2CCC(N3Cc4cc5c(cc4C3)C(=O)N(C3CCC(=O)NC3=O)C5=O)CC2)CCN(c2ccc([C@@H]3c4ccc(O)cc4CC[C@@H]3c3ccccc3)cc2)CC1` (stereo partly drawn) [Compound B283, 2-(2,6-dioxopiperidin-3-yl)-6-(1-(1-(4-((1R,2S)-6-hydroxy-2-phenyl-1,2,3,4-tetrahydronaphthalen-1-yl)phenyl)-4-methylpiperidine-4-carbonyl)piperidin-4-yl)-6,7-dihydropyrrolo[3,4-f]isoindole-1,3(2H,5H)-dione] showed a DC50 greater than 0.1 µM.

`O=C1CCC(N2C(=O)c3cc4c(cc3C2=O)CN(C(=O)C2CCC(CN3CCN(c5ccc([C@@H]6c7ccc(O)cc7CC[C@@H]6c6ccccc6)cc5)CC3)CC2)C4)C(=O)N1` (stereo partly drawn) [Compound B114, 2-(2,6-dioxopiperidin-3-yl)-6-(4-((4-(4-((1R,2S)-6-hydroxy-2-phenyl-1,2,3,4-tetrahydronaphthalen-1-yl)phenyl)piperazin-1-yl)methyl)cyclohexane-1-carbonyl)-6,7-dihydropyrrolo[3,4-f]isoindole-1,3(2H,5H)-dione] showed a DC50 greater than 0.1 µM.

Molecule `O=C1CCC(N2C(=O)c3cc4c(cc3C2=O)CN([C@H]2CC[C@@H](NC3CN(c5ccc([C@@H]6c7ccc(O)cc7CC[C@@H]6c6ccccc6)cc5)C3)CC2)C4)C(=O)N1` (stereo partly drawn) [Compound B102, 2-(2,6-dioxopiperidin-3-yl)-6-((1S,4s)-4-((1-(4-((1R,2S)-6-hydroxy-2-phenyl-1,2,3,4-tetrahydronaphthalen-1-yl)phenyl)azetidin-3-yl)amino)cyclohexyl)-6,7-dihydropyrrolo[3,4-f]isoindole-1,3(2H,5H)-dione] has a DC50 greater than 0.1 µM.

In the case of `O=C1CCC(N2C(=O)c3cc4c(cc3C2=O)CN(CC(=O)N2CC3(CC(Oc5ccc([C@@H]6c7ccc(O)cc7CC[C@@H]6c6ccccc6)cc5)C3)C2)C4)C(=O)N1` (stereo partly drawn) [Compound B276, 2-(2,6-dioxopiperidin-3-yl)-6-(2-(6-(4-((1R,2S)-6-hydroxy-2-phenyl-1,2,3,4-tetrahydronaphthalen-1-yl)phenoxy)-2-azaspiro[3.3]heptan-2-yl)-2-oxoethyl)-6,7-dihydropyrrolo[3,4-f]isoindole-1,3(2H,5H)-dione], the DC50 is reported as greater than 0.1 µM.

With `O=C1CCC(N2C(=O)c3cc4c(cc3C2=O)CN(CC2CN(C(=O)C3CN(c5ccc([C@@H]6c7ccc(O)cc7CC[C@@H]6c6ccccc6)cc5)C3)C2)C4)C(=O)N1` (stereo partly drawn) [Compound B263, 2-(2,6-dioxopiperidin-3-yl)-6-((1-(1-(4-((1R,2S)-6-hydroxy-2-phenyl-1,2,3,4-tetrahydronaphthalen-1-yl)phenyl)azetidine-3-carbonyl)azetidin-3-yl)methyl)-6,7-dihydropyrrolo[3,4-f]isoindole-1,3(2H,5H)-dione] the DC50 was greater than 0.1 µM.

`O=C1CCC(N2C(=O)c3cc4c(cc3C2=O)CN(C(=O)[C@H]2CC[C@@H](N3CC(Oc5ccc([C@@H]6c7ccc(O)cc7CC[C@@H]6c6ccccc6)cc5)C3)CC2)C4)C(=O)N1` (stereo partly drawn) [Compound B126, 2-(2,6-dioxopiperidin-3-yl)-6-((1R,4s)-4-(3-(4-((1R,2S)-6-hydroxy-2-phenyl-1,2,3,4-tetrahydronaphthalen-1-yl)phenoxy)azetidin-1-yl)cyclohexane-1-carbonyl)-6,7-dihydropyrrolo[3,4-f]isoindole-1,3(2H,5H)-dione] showed a DC50 of 0.01 to 0.1 µM.

`O=C1CCC(N2C(=O)c3cc4c(cc3C2=O)CN(CC(=O)N2CCC3(CC2)CCN(c2ccc([C@@H]5c6ccc(O)cc6CC[C@@H]5c5ccc(F)cc5)cn2)CC3)C4)C(=O)N1` (stereo partly drawn) [Compound B54, 2-(2,6-dioxopiperidin-3-yl)-6-(2-(9-(5-((1S,2S)-2-(4-fluorophenyl)-6-hydroxy-1,2,3,4-tetrahydronaphthalen-1-yl)pyridin-2-yl)-3,9-diazaspiro[5.5]undecan-3-yl)-2-oxoethyl)-6,7-dihydropyrrolo[3,4-f]isoindole-1,3(2H,5H)-dione] showed a DC50 greater than 0.1 µM.

Work on `O=C1CCC(N2Cc3cc4c(cc3C2=O)CN(C2CCN(CC3CN(c5ccc([C@@H]6c7ccc(O)cc7CC[C@@H]6c6ccc(F)cc6)cc5)C3)CC2)C4)C(=O)N1` (stereo partly drawn) [Compound B72, 3-(6-(1-((1-(4-((1R,2S)-2-(4-fluorophenyl)-6-hydroxy-1,2,3,4-tetrahydronaphthalen-1-yl)phenyl)azetidin-3-yl)methyl)piperidin-4-yl)-1-oxo-3,5,6,7-tetrahydropyrrolo[3,4-f]isoindol-2(1H)-yl)pipcridinc-2,6-dionc] yielded a DC50 of 0.01 to 0.1 µM.
